Assays:
Format in all cases: in vivo
[1] = test system: barnyardgrass (Echinochloa crus-galli L.): ECHCG; experiment: Test Example 1 pre-emergence herbicidal activity, ECHCG; details: visually observed 20th to 23rd day after application
From the text: (§1) Upland field soil was put into a 1/170,000 ha pot, and seeds of various plants {1. barnyardgrass (Echinochloa crus-galli L.): ECHCG, 2. crabgrass (Digitaria sanguinalis L.): DIGSA, 3. green foxtail (Setaria viridis L.): SETVI, 4. redroot pigweed (Amaranthus retroflexus L.): AMARE, 5. prickly sida (Sida spinosa L.): SEDSP, 6. velvetleaf (Abutilon theophrasti): ABUTH, 7. common cocklebur (Xanthium strumarium L.): XANST, 8. rice (Oryza sativa L.): ORYSA, 9. wheat (Triticum aestivum L.): TRZAX, 10. corn (Zea mays L.): ZEAMX, 11. soybean (Glycine max Merr.): GLXMA} were sown. Then, one day after the sowing, a wettable powder or emulsifiable concentrate having the compound of the present invention formulated in accordance with a usual formulation method, was weighed so that the active ingredient would be a predetermined amount and diluted with water in an amount of 500 L/ha. The herbicide adjusted was applied by a small size sprayer for preemergence treatment. On the 20th to 23rd day after the application of the herbicide, the growth of the respective plants was visually observed, and the herbicidal effects were evaluated by growth controlling degrees (%) ranging from 0 (equivalent to the untreated control) to 100 (complete kill), whereby the results shown in Table 4, were obtained. Compound Nos. in Table 4 correspond to Compound Nos. in Table 1 and 2 given hereinbefore.

[2] = test system: crabgrass (Digitaria sanguinalis L.): DIGSA; experiment: Test Example 1 pre-emergence herbicidal activity, DIGSA; details: visually observed 20th to 23rd day after application
From the text: as §1

[3] = test system: green foxtail (Setaria viridis L.): SETVI; experiment: Test Example 1 pre-emergence herbicidal activity, SETVI; details: visually observed 20th to 23rd day after application
From the text: as §1

[4] = test system: redroot pigweed (Amaranthus retroflexus L.): AMARE; experiment: Test Example 1 pre-emergence herbicidal activity, AMARE; details: visually observed 20th to 23rd day after application
From the text: as §1

[5] = test system: prickly sida (Sida spinosa L.): SEDSP; experiment: Test Example 1 pre-emergence herbicidal activity, SIDSP; details: visually observed 20th to 23rd day after application
From the text: as §1

[6] = test system: velvetleaf (Abutilon theophrasti): ABUTH; experiment: Test Example 1 pre-emergence herbicidal activity, ABUTH; details: visually observed 20th to 23rd day after application
From the text: as §1

[7] = test system: rice (Oryza sativa L.): ORYSA; experiment: Test Example 1 pre-emergence herbicidal activity, ORYSA; details: visually observed 20th to 23rd day after application
From the text: as §1

[8] = test system: wheat (Triticum aestivum L.): TRZAX; experiment: Test Example 1 pre-emergence herbicidal activity, TRZAX; details: visually observed 20th to 23rd day after application
From the text: as §1

[9] = test system: corn (Zea mays L.): ZEAMX; experiment: Test Example 1 pre-emergence herbicidal activity, ZEAMX; details: visually observed 20th to 23rd day after application
From the text: as §1

[10] = test system: soybean (Glycine max Merr.): GLXMA; experiment: Test Example 1 pre-emergence herbicidal activity, GLXMA; details: visually observed 20th to 23rd day after application
From the text: as §1

[11] = test system: barnyardgrass (Echinochloa crus-galli L.), ECHCG; experiment: Test Example 2 post-emergence (foliage treatment) herbicidal activity, ECHCG; details: 63 g a.i./ha
From the text: (§2) Upland field soil was put into a 1/170,000 ha pot, and seeds of various plants were sown. Then, when the plants reached predetermined leaf stages {1. barnyardgrass (Echinochloa crus-galli L.), ECHCG: 1.1-2.1 leaf stage, 2. crabgrass (Digitaria sanguinalis L.), DIGSA: 1.0-2.0 leaf stage, 3. green foxtail (Setaria viridis L.), SETVI: 1.0-2.2 leaf stage, 4. redroot pigweed (Amaranthus retroflexus L.), AMARE: 0.1-1.5 leaf stage, 5. prickly sida (Sida spinosa L.), SIDSP: 0.1-0.6 leaf stage, 6. velvetleaf (Abutilon theophrasti), ABUTH: 0.1-0.6 leaf stage, 7. common cocklebur (Xanthium strumarium L.), XANST: 0.1 leaf stage, 8. rice (Oryza sativa L.), ORYSA; 1.0-2 leaf stage, 9. wheat (Triticum aestivum L.), TRZAX: 2.3-3.5 leaf stage, 10. corn (Zea mays L.), ZEAMXN 2.1-2.6 leaf stage, 11. soybean (Glycine max Merr.), GLXMA: primary leaf stage}, a wettable powder or emulsifiable concentrate having the compound of the present invention formulated in accordance with a usual formulation method, was weighed so that the active ingredient would be a predetermined amount, and diluted with water in an amount of 500 L/ha. To the diluted solution, 0.1% (v/v) of an agricultural spreader was added. The herbicide adjusted was applied by a small size sprayer for foliage treatment. On the 20th to 23rd day after the application of the herbicide, the growth of the respective plants was visually observed, and the herbicidal effects were evaluated by growth controlling degrees (%) ranging from 0 (equivalent to the untreated control) to 100 (complete kill), whereby the results shown in Table 5, were obtained. Compound Nos. in Table 5 correspond to Compound Nos. in Table 1 and 2 given hereinbefore.

[12] = test system: crabgrass (Digitaria sanguinalis L.), DIGSA; experiment: Test Example 2 post-emergence (foliage treatment) herbicidal activity, DIGSA; details: 63 g a.i./ha
From the text: as §2

[13] = test system: green foxtail (Setaria viridis L.), SETVI; experiment: Test Example 2 post-emergence (foliage treatment) herbicidal activity, SETVI; details: 63 g a.i./ha
From the text: as §2

[14] = test system: prickly sida (Sida spinosa L.), SIDSP; experiment: Test Example 2 post-emergence (foliage treatment) herbicidal activity, SIDSP; details: 63 g a.i./ha
From the text: as §2

[15] = test system: velvetleaf (Abutilon theophrasti), ABUTH; experiment: Test Example 2 post-emergence (foliage treatment) herbicidal activity, ABUTH; details: 63 g a.i./ha
From the text: as §2

[16] = test system: rice (Oryza sativa L.), ORYSA; experiment: Test Example 2 post-emergence (foliage treatment) herbicidal activity, ORYSA; details: 63 g a.i./ha
From the text: as §2

[17] = test system: wheat (Triticum aestivum L.), TRZAX; experiment: Test Example 2 post-emergence (foliage treatment) herbicidal activity, TRZAX; details: 63 g a.i./ha
From the text: as §2

[18] = test system: corn (Zea mays L.), ZEAMX; experiment: Test Example 2 post-emergence (foliage treatment) herbicidal activity, ZEAMX; details: 63 g a.i./ha
From the text: as §2

[19] = test system: soybean (Glycine max Merr.), GLXMA; experiment: Test Example 2 post-emergence (foliage treatment) herbicidal activity, GLXMA; details: 63 g a.i./ha
From the text: as §2

| SMILES | Pre-emergence Herbicidal Activity ECHCG (growth controlling degree) ([1]; Rate 63 g a.i./ha) | Pre-emergence Herbicidal Activity DIGSP (growth controlling degree) ([2]; Rate 63 g a.i./ha) | Pre-emergence Herbicidal Activity SETVI (growth controlling degree) ([3]; Rate 63 g a.i./ha) | Pre-emergence Herbicidal Activity AMARE (growth controlling degree) ([4]; Rate 63 g a.i./ha) | Pre-emergence Herbicidal Activity SIDSP (growth controlling degree) ([5]; Rate 63 g a.i./ha) | Pre-emergence Herbicidal Activity ABUTH (growth controlling degree) ([6]; Rate 63 g a.i./ha) | Pre-emergence Herbicidal Activity ORYSA (growth controlling degree) ([7]; Rate 63 g a.i./ha) | Pre-emergence Herbicidal Activity TRZAX (growth controlling degree) ([8]; Rate 63 g a.i./ha) | Pre-emergence Herbicidal Activity ZEAMX (growth controlling degree) ([9]; Rate 63 g a.i./ha) | Pre-emergence Herbicidal Activity GLXMA (growth controlling degree) ([10]; Rate 63 g a.i./ha) | growth controlling degree, ECHCO [11] | growth controlling degree, DIGSP [12] | growth controlling degree, SETVI [13] | growth controlling degree, SIDSP [14] | growth controlling degree, ABUTH [15] | growth controlling degree, ORYSA [16] | growth controlling degree, TRZAX [17] | growth controlling degree, ZEAMX [18] | growth controlling degree, GLXMA [19] | other results |
| --- | --- | --- | --- | --- | --- | --- | --- | --- | --- | --- | --- | --- | --- | --- | --- | --- | --- | --- | --- | --- |
| COCCC(=O)Nc1c(OC)c(Cl)cc(F)c1-c1nn(C)c(OC(F)F)c1Cl [Compound 1-40] | 100% | 100% | 100% | 100% | 100% | 100% | 80% | 60% | 60% | 30% | 100% | 80% | 100% | 100% | 100% | 100% | 50% | 70% | 95% | – |
| COc1c(Cl)cc(F)c(-c2nn(C)c(OC(F)F)c2Cl)c1NC(=O)c1ccc(C)cc1 [Compound 1-261] | 80% | 100% | 98% | 100% | 100% | 80% | 40% | 10% | 0% | 0% | 100% | 95% | 100% | 100% | 100% | 70% | 30% | 40% | 70% | – |
| COc1c(Cl)cc(F)c(-c2nn(C)c(OC(F)F)c2Cl)c1NC(=O)C(C)c1ccccc1 (centres unmarked) [Compound 1-41] | – | – | – | – | – | – | – | – | – | – | 20% | 30% | 40% | 100% | 100% | 30% | 30% | 0% | 40% | Pre-emergence Herbicidal Activity ECHCG (growth controlling degree) ([1]; Rate 10 g a.i./ha): 30%; Pre-emergence Herbicidal Activity DIGSP (growth controlling degree) ([2]; Rate 10 g a.i./ha): 50%; Pre-emergence Herbicidal Activity SETVI (growth controlling degree) ([3]; Rate 10 g a.i./ha): 100%; Pre-emergence Herbicidal Activity AMARE (growth controlling degree) ([4]; Rate 10 g a.i./ha): 50%; Pre-emergence Herbicidal Activity SIDSP (growth controlling degree) ([5]; Rate 10 g a.i./ha): 40%; Pre-emergence Herbicidal Activity ABUTH (growth controlling degree) ([6]; Rate 10 g a.i./ha): 0%; Pre-emergence Herbicidal Activity ORYSA (growth controlling degree) ([7]; Rate 10 g a.i./ha): 0%; Pre-emergence Herbicidal Activity TRZAX (growth controlling degree) ([8]; Rate 10 g a.i./ha): 0%; Pre-emergence Herbicidal Activity ZEAMX (growth controlling degree) ([9]; Rate 10 g a.i./ha): 0%; Pre-emergence Herbicidal Activity GLXMA (growth controlling degree) ([10]; Rate 10 g a.i./ha): 0% |
| COc1c(Cl)cc(F)c(-c2nn(C)c(OC(F)F)c2Cl)c1NC(=O)C=Cc1ccc(F)cc1 [Compound 1-258] | 10% | 70% | 30% | 100% | 70% | 70% | 40% | 0% | 0% | 0% | 60% | 40% | 60% | 100% | 100% | 40% | 10% | 10% | 20% | – |
| COc1c(Cl)cc(F)c(-c2nn(C)c(OC(F)F)c2Cl)c1NCCOc1ccccc1 [Compound 1-77] | 0% | 0% | 10% | – | 0% | 0% | 0% | 0% | 0% | 0% | 70% | 60% | 95% | 100% | 100% | 40% | 30% | 60% | 60% | – |
| COc1c(Cl)cc(F)c(-c2nn(C)c(OC(F)F)c2Cl)c1NC(=O)OCC1CCCCC1 [Compound 1-73] | 30% | 20% | 60% | 100% | 20% | 10% | 10% | 0% | 0% | 0% | 100% | 10% | 70% | 100% | 100% | 50% | 50% | 10% | 50% | – |

— patent US20050245399A1, “Pyrazole derivatives as herbicidal compositions containing them” (ISHIHARA SANGYO KAISHA, LTD., priority 2004, published 2005)
